What was measured:
[1] = test system: artificial skin (human dermal fibroblast collagen gel with human foreskin-derived epidermal keratinocytes); test: Artificial skin culture with additives in the medium, H&E and type IV / type VII collagen immunostaining (Example 1); assay type: cell-based; conditions: for staining of type IV and type VII collagen: cytokine (1 ng/ml interleukin-1β, 1 ng/ml TGF-α or 100 ng/ml PDGF) combined with 10 μg/ml aprotinin and 10 μM compound A
Method: (§1) Collagen gel was obtained by preparing 10 ml of a human dermal fibroblasts (0.3-1×10^5 cell/ml)-suspended collagen solution (using I-AC collagen manufactured by Koken Co., Ltd.) on ice, followed by gelling the collagen in a 60 mm Petri dish at 37° C. The gel was then peeled from the bottom of the dish, the collagen gel was placed on metal, and a glass ring (12 mm inner diameter) was placed over the gel. A 0.4 ml portion of a human foreskin-derived epidermal keratinocyte (1×10^6/ml) suspension (KGM-DMEM (1:1) mixed medium containing 5% fetal bovine serum) was poured into the glass ring while avoiding leakage. The keratinocytes were allowed to adhere in a CO2 incubator overnight, and the ring was removed on the following day. The medium was filled in up to the border of the epidermal layer, and culturing was continued while exposing the epidermal layer to the air, to prepare a multilayered skin model with epidermis having a horny layer.
From the 4th day after seeding the epidermal cells, the medium was replaced with medium containing (1) no compound (−compound A), (2) 10 uM of compound A (+compound A), (3) 10 μM of compound A and 10 μg/ml of aprotinin (+compound A+aprotinin), (4) 10 μM of compound A and 1 ng/ml of interleukin-1β (+compound A+IL-1), (5) 10 μM of compound A, 1 ng/ml of interleukin-1β and 10 μg/ml of aprotinin (+compound A+IL-1+aprotinin), (6) 10 μM of compound A and 1 ng/ml of TFG-α (+compound A+TGFα), (7) 10 μM of compound A, 1 ng/ml of TGF-α and 10 μg/ml aprotinin (+compound A, +TGFα+aprotinin), (8) 10 μM of compound A and 100 ng/ml PDGF (+compound A+PDGF) and (9) 10 μm of compound A, 100 ng/ml PDGF and 10 μg/ml of aprotinin (+compound A+PDGF +aprotinin), and every 2-3 days thereafter, the medium was exchanged with a medium containing the same types and same concentrations of […], extracellular matrix production accelerator (cytokines) and serine protease inhibitor, after which culturing was performed for 2 weeks.
The formed artificial skin was stained with hematoxylin and eosin (H&E) and immunostaining (using anti-type IV collagen antibody and anti-type VII collagen antibody).

[2] = test system: artificial skin basement membrane; test: Transmission electron microscopy of basement membrane structure directly under the epidermis of artificial skin (Example 1); assay type: cell-based, human
Method: as §1, with “layer. […]” for “layer.”

[3] = cytokine (1 ng/ml interleukin-1β, 1 ng/ml TGF-α or 100 ng/ml PDGF) together with 10 μM compound A

Compound	staining of type IV and type VII collagen [1]	staining of type VII collagen [1, 3]	further results
interleukin 1 (IL-1): matrix protein production-increasing cytokine, interleukin-1β	clearly concentrated directly under the basal keratinocytes, giving a sharp stained image	particularly accentuated	
COc1ccc(S(=O)(=O)N(Cc2cccnc2)C(C(=O)NO)C(C)C)cc1.Cl (centres unmarked) [compound A, reference compound]			staining of type VII collagen directly under the basal keratinocytes ([1]; 10 μM compound A alone in medium, 2 weeks culture, versus no-addition control): weak but definite staining of type VII collagen; basement membrane structure directly under the epidermis (transmission electron microscope) ([2]; 10 μM compound A alone): induced formation of the basement membrane
transforming growth factor-α (TGF-α): matrix protein production-increasing cytokine	clearly concentrated directly under the basal keratinocytes, giving a sharp stained image	particularly accentuated	
aprotinin			staining of type VII collagen ([1]; 10 μg/ml aprotinin added in addition to 10 μM compound A, 2 weeks culture): further increased; basement membrane structure directly under the epidermis (transmission electron microscope) ([2]; 10 μg/ml aprotinin added with 10 μM compound A): increased the electron density and accentuated the continuity of the basement membrane

Reference: patent US20080241101A1, “Skin vitalizing composition for external use anti-aging preparation” (Shiseido Company, Ltd., priority 2002, published 2008)
